{"source": "patent US20160376240A1", "about": "“6 Phenyl or 6 Pyridin 3 YL Indazole Derivatives and Methods of Use” (ABBVIE INC., priority 2014, published 2016)", "key": {"TrkA": {"biological_target": "T1, TrkA (Homo sapiens, UniProt P04629)", "T1 construct": "purchased Invitrogen PV3144", "T1 sequence (P04629 33-796)": "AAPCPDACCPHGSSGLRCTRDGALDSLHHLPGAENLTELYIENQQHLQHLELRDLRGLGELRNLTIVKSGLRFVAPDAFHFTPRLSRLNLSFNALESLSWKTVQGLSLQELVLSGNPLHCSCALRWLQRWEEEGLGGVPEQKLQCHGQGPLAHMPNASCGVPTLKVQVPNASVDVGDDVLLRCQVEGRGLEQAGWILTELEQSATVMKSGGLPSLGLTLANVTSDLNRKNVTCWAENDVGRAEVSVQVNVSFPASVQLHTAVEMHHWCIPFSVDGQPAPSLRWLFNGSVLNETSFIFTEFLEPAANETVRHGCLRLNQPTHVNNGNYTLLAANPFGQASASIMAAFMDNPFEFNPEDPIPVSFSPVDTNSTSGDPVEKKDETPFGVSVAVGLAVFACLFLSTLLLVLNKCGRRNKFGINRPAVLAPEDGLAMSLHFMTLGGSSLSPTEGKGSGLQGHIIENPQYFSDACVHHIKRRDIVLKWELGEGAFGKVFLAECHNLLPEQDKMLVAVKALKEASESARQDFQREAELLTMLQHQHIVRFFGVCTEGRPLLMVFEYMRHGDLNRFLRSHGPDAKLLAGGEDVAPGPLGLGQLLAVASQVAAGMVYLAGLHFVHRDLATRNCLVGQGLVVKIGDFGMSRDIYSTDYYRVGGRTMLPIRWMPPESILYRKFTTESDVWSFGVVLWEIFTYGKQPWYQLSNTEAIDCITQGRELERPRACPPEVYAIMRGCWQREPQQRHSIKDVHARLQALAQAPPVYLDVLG", "experiment": "TrkA kinase inhibition, HTRF assay", "format": "biochemical", "conditions": "LCK peptide substrate 125 nM, TrkA 2-10 nM pre-incubated with ATP 200 μM", "how_it_was_run": "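TrkA (2-10 nM) preactivated 20 min with 200 μM ATP in HEPES pH 7.4 with Mg2+/Mn2+, then compound for 10 min, then 125 nM biotinylated LCK-peptide for 1 h at ambient temperature. HTRF 665/620 ratio read; IC50 fitted from initial-rate percent inhibition.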"}, "TrkB": {"biological_target": "T2, TrkB (Homo sapiens, UniProt Q16620)", "T2 construct": "purchased Invitrogen PV3616", "T2 sequence (Q16620 32-822)": "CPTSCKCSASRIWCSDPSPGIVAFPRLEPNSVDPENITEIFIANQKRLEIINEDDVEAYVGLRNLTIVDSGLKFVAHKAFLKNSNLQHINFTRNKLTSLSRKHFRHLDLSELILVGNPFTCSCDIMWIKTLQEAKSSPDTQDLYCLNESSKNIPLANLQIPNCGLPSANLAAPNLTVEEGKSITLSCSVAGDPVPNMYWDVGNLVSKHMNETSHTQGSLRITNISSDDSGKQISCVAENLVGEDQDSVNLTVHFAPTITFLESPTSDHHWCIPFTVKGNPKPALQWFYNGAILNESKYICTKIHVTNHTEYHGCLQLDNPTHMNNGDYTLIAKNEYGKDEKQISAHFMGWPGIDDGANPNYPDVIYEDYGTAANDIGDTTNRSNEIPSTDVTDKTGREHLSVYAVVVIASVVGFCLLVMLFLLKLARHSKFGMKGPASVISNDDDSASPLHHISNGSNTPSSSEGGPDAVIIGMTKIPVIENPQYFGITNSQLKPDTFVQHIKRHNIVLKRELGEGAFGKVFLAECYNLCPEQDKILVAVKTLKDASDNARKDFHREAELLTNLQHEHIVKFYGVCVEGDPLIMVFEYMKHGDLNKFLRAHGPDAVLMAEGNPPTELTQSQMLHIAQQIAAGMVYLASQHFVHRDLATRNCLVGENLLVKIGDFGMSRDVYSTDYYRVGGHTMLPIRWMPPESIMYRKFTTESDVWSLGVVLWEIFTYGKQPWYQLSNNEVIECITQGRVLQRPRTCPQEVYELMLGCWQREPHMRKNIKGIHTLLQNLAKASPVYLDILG", "experiment": "TrkB kinase inhibition, HTRF assay", "format": "biochemical", "conditions": "LCK peptide substrate, assay ATP concentration targeted 5 μM", "protocol": "(§1) TrkA, TrkB, and TrkC enzymes were obtained from Invitrogen (as catalog numbers PV3144, PV3616, and PV3617, respectively). The ability of a compound to inhibit the enzymatic activity of the TrkA, TrkB, and TrkC enzymes was determined in separate assays. Enzyme activity was measured in an HTRF® (homogeneous time resolved fluorescence) assay, which detects enzymatic phosphorylation of a biotinylated synthetic peptide substrate (an LCK peptide analog, biotin-ahx-GAEEEIYAAFFA, from Genemed Synthesis). Phosphorylation is assessed by HTRF® in the presence of an anti-phosphotyrosine antibody conjugated to Eu^3+ cryptate (Cisbio) as donor fluorophore, and streptavidin conjugated to allophycocyanin (ProZyme) as acceptor fluorophore. The HTRF® signal was detected at two different wavelengths (620 nm and 665 nm) which were used to calculate the fluorescence ratio.\n(§2) Each enzyme was titrated to a concentration optimized to ensure accurate measurement of the initial reaction rate. To allow the Trk enzymes to undergo activation and auto-phosphorylation, a 20 minute pre-incubation with ATP was carried out (at twice the final targeted enzyme and ATP concentration) prior to addition of test compound and the peptide substrate.\n(§3) TrkA in vitro assays were performed by pre-incubating TrkA (2-10 nM) with ATP (200 μM) for 20 minutes at ambient temperature in 50 mM HEPES pH 7.4, 10 mM MgCl2, 2 mM MnCl2, 100 μM Na3VO4, 1 mM dithiothreitol, 0.01% BSA (bovine serum albumin). Then, to the activated Trk enzyme mixture was added the test compound in 2% dimethyl sulfoxide. After 10 minutes, the peptide substrate (125 nM) was added. After 1 hour, enzyme reactions were terminated by addition of equal reaction volumes of detection/stop reagent (containing 0.2 μg/mL anti-phosphotyrosine monoclonal antibody labeled with europium from Cisbio (catalog# PT66-K), and 4 μg/mL PhycoLink® Streptavidin-Allophycocyanin conjugate from ProZyme (catalog# PJ25S) in 60 mM EDTA in 40 mM HEPES pH 7.4, 480 mM KF, 0.01% Tween® 20 and 0.1% BSA bovine serum albumin) Reaction plates were stored at 4° C. overnight before reading the fluorescence ratio signal on a PerkinElmer EnVision™ fluorescence detector. Individual reaction wells were stopped at time points to obtain reaction rates. The test inhibitor compounds were assayed in duplicate, at half-log serial dilutions over a range of concentrations (e.g. starting at 50 μM or 5 μM as the high compound concentration). The percent Trk enzyme inhibition was calculated from the initial rates of the inhibited reactions relative to the uninhibited control. IC50 values were calculated by fitting the inhibition percent to the concentration of inhibitor [I] in the assay in equation 1 below, to solve for the IC50.\n(§4) Inhibition %=100[I]/([I]+[IC50]) equation 1\n(§5) The TrkB and TrkC in vitro assays were performed as described above, except that for these enzymes the assay ATP concentration targeted was 5 μM."}, "[1]": {"test_system": "rat model of mono-iodoacetic acid induced osteoarthritis pain", "experiment": "Osteoarthritis pain model, hind limb grip force in MIA-treated rats", "format": "in vivo", "conditions": "dose 30 mg/kg p.o., mean percent effect, ***p<0.001 vs vehicle-treated animals", "protocol": "Members of the TrkA inhibitors described above were tested and found effective in reducing osteoarthritis pain. The compounds tested were assessed in an in vivo model well known to those skilled in the art, the rat model of mono-iodoacetic acid induced osteoarthritis pain. A general review of various models of pain can be found in Joshi and Honore, Expert Opinion in Drug Discovery (2004) 1, pp. 323-334, and in the book ‘Drug Discovery and Evaluation, 2nd edition (H. Gerhard Vogel, editor; Springer-Verlag, New York, 2002; pp. 702-706).\nPain behavior was assessed by measurement of hind limb grip force (GF) in adult osteoarthritic rats. Male Sprague Dawley rats, generally weighing 125-150 g, were injected in the unilateral knee join with a single intra-articular injection of sodium monoiodoacetate (MIA). Rats were tested at 21-28 days following MIA injection. A behavioral measure of activity-induced pain was carried out. Measurements of the peak hind limb grip force were conducted by recording the maximum compressive force (CFmax), in grams of force, exerted on a hind limb strain gauge setup, in a commercially available grip force measurement system (Columbus Instruments, Columbus, Ohio).\nDuring testing, each rat was gently restrained by grasping it around its rib cage and then allowed to grasp the wire mesh frame attached to the strain gauge. The experimenter then moved the animal in a rostral-to-caudal direction until the grip was broken. Each rat was sequentially tested twice at an approximately 2-3 minute interval to obtain a raw mean grip force (CFmax). This raw mean grip force data was in turn converted to a maximum hindlimb cumulative compressive force (CFmax), as the grams of force/kg of body weight, for each animal.\nFor evaluating the compound effects, the hind limb grip force testing in the MIA-treated rats was conducted generally 30-60 minutes after dosing with the test compound. A group of age-matched nave (not injected with MIA) animals was added as a comparator to the drug-dosed groups. The vehicle control response for each group of MIA-treated animals was defined as the 0% response (0% effect), whereas the nave control group was defined as the normal response and as 100% effect. The % effect=(Treatment CFmax−Vehicle CFmax)/Vehicle CFmax]×100). Higher % effect numbers indicate increased relief from the pain in the model, with 100% indicating a return to the level of response seen in normal (non-osteoarthritic) animals. All experiments evaluating drug effects in this model were conducted in a randomized blinded fashion.\nMale Sprague Dawley rats (generally 250-300 g body weight at the time of testing) obtained from Charles River Laboratories (Wilmington, Mass.) were used for all experiments, unless indicated otherwise. […]"}, "TrkC": {"biological_target": "T3, TrkC (Homo sapiens, UniProt Q16288)", "T3 construct": "purchased Invitrogen PV3617", "T3 sequence (Q16288 32-839)": "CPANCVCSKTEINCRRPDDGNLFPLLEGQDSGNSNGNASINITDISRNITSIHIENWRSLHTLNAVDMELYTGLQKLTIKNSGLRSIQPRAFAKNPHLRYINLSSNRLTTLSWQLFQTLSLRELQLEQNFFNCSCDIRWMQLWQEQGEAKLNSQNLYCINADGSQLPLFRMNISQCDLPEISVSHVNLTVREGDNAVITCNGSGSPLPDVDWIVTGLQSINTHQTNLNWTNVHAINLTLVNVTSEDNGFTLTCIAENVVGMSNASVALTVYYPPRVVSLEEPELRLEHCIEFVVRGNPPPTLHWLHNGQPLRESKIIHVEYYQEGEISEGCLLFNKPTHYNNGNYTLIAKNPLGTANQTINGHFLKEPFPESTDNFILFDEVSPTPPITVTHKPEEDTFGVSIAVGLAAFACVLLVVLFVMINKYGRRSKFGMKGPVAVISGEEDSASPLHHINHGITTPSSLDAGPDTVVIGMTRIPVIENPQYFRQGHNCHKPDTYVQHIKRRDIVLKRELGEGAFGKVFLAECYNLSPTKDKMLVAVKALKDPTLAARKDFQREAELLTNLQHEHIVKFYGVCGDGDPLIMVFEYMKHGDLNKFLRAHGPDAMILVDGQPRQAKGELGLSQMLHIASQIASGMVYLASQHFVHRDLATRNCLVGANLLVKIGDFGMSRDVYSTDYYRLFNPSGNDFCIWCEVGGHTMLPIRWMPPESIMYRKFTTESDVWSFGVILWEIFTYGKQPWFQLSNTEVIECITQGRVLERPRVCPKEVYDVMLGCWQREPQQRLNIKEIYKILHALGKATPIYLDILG", "experiment": "TrkC kinase inhibition, HTRF assay", "format": "biochemical", "conditions": "LCK peptide substrate, assay ATP concentration targeted 5 μM", "protocol": "as §1, §2, §3, §4, §5"}}}
{"smiles": "CNC(=O)c1ccc(-c2cc(OC3CCOCC3)c3c(C)n[nH]c3c2)cc1N1CCN(C(=O)OC(C)C)CC1", "note": "[Example 125, isopropyl 4-{2-(methylcarbamoyl)-5-[3-methyl-4-(tetrahydro-2H-pyran-4-yloxy)-1H-indazol-6-yl]phenyl}piperazine-1-carboxylate]", "values": [{"measurement": "IC50", "setting": "TrkA", "result": 7.98, "unit": "nM"}, {"measurement": "IC50", "setting": "TrkB", "result": 3.2, "unit": "nM"}, {"measurement": "% Effect", "setting": "[1]", "result": 85, "unit": "%***"}, {"measurement": "IC50", "setting": "TrkC", "result": 5.11, "unit": "nM"}]}
